Consider nine compounds from PubChem BioAssay (NCI).

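Protocol summary: plate cells (96-well), add compound at 5 concentrations, incubate 48 h, interpolate endpoints linearly. GI50 marks 50% less growth. At the TGI there is no net growth.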

Test systems include PC-3 prostate; SK-MEL-28 melanoma; HOP-62 NSCLC; T-47D breast; K-562 leukemia; OVCAR-5 ovarian; EKVX NSCLC; HCT-15 colon; RXF 393 renal; SK-OV-3 ovarian.
Common to all, as to test: NCI anticancer screen, dose series, 48 h

As to `Cc1ccc2c(/C=C/C(=O)c3cc(CN4CCOCC4)c(O)c4nc(C)ccc34)cc(CN3CCOCC3)c(O)c2n1`, the GI50 is 0.577 µM with PC-3 prostate; 1.08 µM with SK-MEL-28 melanoma; 0.739 µM in the test with HOP-62 NSCLC; 0.779 µM in the test with T-47D breast; 0.355 µM with K-562 leukemia; 1.55 µM with OVCAR-5 ovarian. The GI50 in the test with EKVX NSCLC was 2.1 µM; in the test with HCT-15 colon, 0.223 µM; in the test with RXF 393 renal it was 0.851 µM. In addition, the TGI in the test on PC-3 prostate was found to be 19.1 µM; in the test with SK-MEL-28 melanoma it was 12 µM; with HOP-62 NSCLC, 11.8 µM; with T-47D breast it was 14 µM; with K-562 leukemia, 17.1 µM; in the test on OVCAR-5 ovarian it was 13.1 µM. Further, the TGI in the test on EKVX NSCLC came to 13.6 µM; with HCT-15 colon it was 3.33 µM; with RXF 393 renal, 2.27 µM.
As to `Cc1ccc(C)c(-n2c(-c3ccc(Br)cc3)csc2=NC(=O)c2ccccc2F)c1`, the GI50 was 3.29 µM with PC-3 prostate; above 100 µM in the test on SK-MEL-28 melanoma; above 100 µM in the test with HOP-62 NSCLC; above 100 µM with SK-OV-3 ovarian; 3.47 µM in the test with K-562 leukemia; above 100 µM in the test on OVCAR-5 ovarian. The GI50 with EKVX NSCLC, with HCT-15 colon and in the test on RXF 393 renal was above 100 µM throughout. Also, the TGI in the test with PC-3 prostate, in the test on SK-MEL-28 melanoma, in the test with HOP-62 NSCLC, with SK-OV-3 ovarian, in the test on K-562 leukemia and in the test on OVCAR-5 ovarian was above 100 µM in each case. The TGI in the test on EKVX NSCLC, in the test on HCT-15 colon and with RXF 393 renal was above 100 µM in each case.
Turning to `O=C(Nc1cccc(C2=NCCN2)c1)c1ccc(OCCCOc2ccc(C(=O)Nc3cccc(C4=NCCN4)c3)cc2)cc1`, the GI50 was 2.78 µM in the test with PC-3 prostate; 4.45 µM in the test with HOP-62 NSCLC; 2.39 µM with SK-OV-3 ovarian; 1.25 µM in the test on K-562 leukemia; 3.51 µM in the test on OVCAR-5 ovarian; 20.2 µM with HCT-15 colon. Moreover, the GI50 with RXF 393 renal is 5.78 µM. Further, the TGI in the test on PC-3 prostate was 8.21 µM; in the test on HOP-62 NSCLC, above 100 µM; with SK-OV-3 ovarian, 5.41 µM; in the test on K-562 leukemia, above 100 µM; in the test with OVCAR-5 ovarian it was 20.4 µM; in the test with HCT-15 colon, above 100 µM. In the test on RXF 393 renal, this compound returned a TGI above 100 µM.
As to `O=C(CCl)Nc1ccccc1SCc1cc(Cl)cc2c1OCOC2`, the GI50 is 11.4 µM with PC-3 prostate; 13.5 µM in the test on SK-MEL-28 melanoma; 19.8 µM in the test on HOP-62 NSCLC; 12.2 µM in the test on SK-OV-3 ovarian; 9.82 µM with T-47D breast; 3.35 µM with K-562 leukemia. Besides, the GI50 with OVCAR-5 ovarian is 13.5 µM; with HCT-15 colon, 6.4 µM; with RXF 393 renal it was 7.24 µM. Further, the TGI in the test on PC-3 prostate worked out at 25.9 µM; with SK-MEL-28 melanoma, 26.8 µM; in the test on HOP-62 NSCLC, 41.5 µM; with SK-OV-3 ovarian, 33.5 µM; in the test with T-47D breast, 45.2 µM; in the test with K-562 leukemia it was 25.1 µM. Further, the TGI with OVCAR-5 ovarian was determined as 27.7 µM; in the test with HCT-15 colon, 21.6 µM; in the test with RXF 393 renal, 20.9 µM.
With `COc1cc(/C=C2\CC(C)CC3C2=NN(c2ccccc2)C3c2cc(OC)c(OC)c(OC)c2)cc(OC)c1OC` (configuration not stated), the GI50 with PC-3 prostate is 16.9 µM; in the test with SK-MEL-28 melanoma, 11.2 µM; with SK-OV-3 ovarian, 9.14 µM; in the test with T-47D breast, 4.07 µM; in the test with K-562 leukemia, 6.4 µM; in the test with OVCAR-5 ovarian it was 53.7 µM. The GI50 in the test on EKVX NSCLC is 13.5 µM; in the test with HCT-15 colon, 11.2 µM. Also, the TGI in the test on PC-3 prostate was above 100 µM; in the test with SK-MEL-28 melanoma it was 39.7 µM; in the test with SK-OV-3 ovarian, 41 µM; in the test on T-47D breast, 31.7 µM; in the test with K-562 leukemia it was above 100 µM; in the test with OVCAR-5 ovarian, above 100 µM. Further, the TGI in the test with EKVX NSCLC was above 100 µM; in the test with HCT-15 colon it was 25.6 µM.
Consider `O=C1C(Cl)=C(Oc2ccccc2)C(=O)c2ccccc21`, for which the GI50 in the test with PC-3 prostate was 4.34 µM; in the test with SK-MEL-28 melanoma, 13.5 µM; with HOP-62 NSCLC, 8.55 µM; in the test on SK-OV-3 ovarian, 6.51 µM; in the test with K-562 leukemia it was 3.17 µM; in the test on OVCAR-5 ovarian, 16.7 µM. Besides, the GI50 is 4.77 µM in the test with EKVX NSCLC, 12.1 µM in the test with HCT-15 colon and 2.75 µM with RXF 393 renal. For the same compound, the TGI with PC-3 prostate is 20.9 µM; in the test with SK-MEL-28 melanoma, 27.1 µM; with HOP-62 NSCLC, 22.2 µM; in the test on SK-OV-3 ovarian, 23.6 µM; with K-562 leukemia, above 100 µM; with OVCAR-5 ovarian, 31.7 µM. In addition, the figures for the TGI in the test with EKVX NSCLC, with HCT-15 colon and with RXF 393 renal were 24 µM, 31.5 µM and 6.84 µM, respectively.
In the case of `O=C1C(c2ccc(Cl)cc2)=[N+]([O-])c2ccccc21`, the TGI was 28.5 µM in the test on SK-MEL-28 melanoma; 78.5 µM with HOP-62 NSCLC; above 100 µM in the test with SK-OV-3 ovarian; 68.5 µM in the test on K-562 leukemia; 48.7 µM in the test with OVCAR-5 ovarian; 28.9 µM in the test with EKVX NSCLC. For the same compound, the figures for the TGI in the test with HCT-15 colon and with RXF 393 renal were 41.3 µM and 23 µM, respectively.
As to `Clc1ccc(Nc2ccnc(NCCNc3ccnc4cc(Cl)ccc34)n2)cc1`, the GI50 was 1.19 µM with PC-3 prostate; 1.58 µM in the test on SK-MEL-28 melanoma; 1.27 µM in the test on HOP-62 NSCLC; 1.44 µM in the test with SK-OV-3 ovarian; 1.15 µM with T-47D breast; 0.501 µM with K-562 leukemia. Moreover, the GI50 in the test on OVCAR-5 ovarian is 1.16 µM; in the test on HCT-15 colon, 1.03 µM. Further, the TGI in the test on PC-3 prostate worked out at 3.15 µM; in the test on SK-MEL-28 melanoma it was 3.03 µM; in the test with HOP-62 NSCLC, 2.66 µM; in the test on SK-OV-3 ovarian, 2.76 µM; in the test on T-47D breast it was 3.05 µM; in the test on K-562 leukemia, 1.87 µM. The TGI in the test with OVCAR-5 ovarian is 2.45 µM; in the test on HCT-15 colon, 2.36 µM.
In the case of `COc1ccc(-c2nc3sccn3c2/C=C/C(=O)c2cc(OC)c(OC)c(OC)c2)cc1OC`, the GI50 in the test on PC-3 prostate is 2.21 µM; in the test with HOP-62 NSCLC, 2.58 µM; with SK-OV-3 ovarian it was 2.9 µM; in the test on T-47D breast, 1.72 µM; with K-562 leukemia it was 2.41 µM; in the test on OVCAR-5 ovarian, 2.45 µM. Besides, the GI50 was 3.92 µM with EKVX NSCLC and 3.24 µM in the test on HCT-15 colon. Further, the TGI in the test on PC-3 prostate was 6.96 µM; with HOP-62 NSCLC, 6.68 µM; in the test with SK-OV-3 ovarian, 8.07 µM; with T-47D breast it was 5.83 µM; in the test on K-562 leukemia it was above 100 µM; in the test on OVCAR-5 ovarian, 7.02 µM. For the same compound, the TGI in the test on EKVX NSCLC and in the test on HCT-15 colon was above 100 µM in each case.
